Laboratory results as given in ChEMBL document CHEMBL1141969, “2-Cyano-4-fluoro-1-thiovalylpyrrolidine analogues as potent inhibitors of DPP-IV” (Bioorg Med Chem Lett, 2005).

Experiments:
[1] = molecular target: T1, Prolyl endopeptidase FAP (Homo sapiens, UniProt Q12884); assay: Inhibitory activity against recombinant seprase
T1 sequence (Q12884 whole entry): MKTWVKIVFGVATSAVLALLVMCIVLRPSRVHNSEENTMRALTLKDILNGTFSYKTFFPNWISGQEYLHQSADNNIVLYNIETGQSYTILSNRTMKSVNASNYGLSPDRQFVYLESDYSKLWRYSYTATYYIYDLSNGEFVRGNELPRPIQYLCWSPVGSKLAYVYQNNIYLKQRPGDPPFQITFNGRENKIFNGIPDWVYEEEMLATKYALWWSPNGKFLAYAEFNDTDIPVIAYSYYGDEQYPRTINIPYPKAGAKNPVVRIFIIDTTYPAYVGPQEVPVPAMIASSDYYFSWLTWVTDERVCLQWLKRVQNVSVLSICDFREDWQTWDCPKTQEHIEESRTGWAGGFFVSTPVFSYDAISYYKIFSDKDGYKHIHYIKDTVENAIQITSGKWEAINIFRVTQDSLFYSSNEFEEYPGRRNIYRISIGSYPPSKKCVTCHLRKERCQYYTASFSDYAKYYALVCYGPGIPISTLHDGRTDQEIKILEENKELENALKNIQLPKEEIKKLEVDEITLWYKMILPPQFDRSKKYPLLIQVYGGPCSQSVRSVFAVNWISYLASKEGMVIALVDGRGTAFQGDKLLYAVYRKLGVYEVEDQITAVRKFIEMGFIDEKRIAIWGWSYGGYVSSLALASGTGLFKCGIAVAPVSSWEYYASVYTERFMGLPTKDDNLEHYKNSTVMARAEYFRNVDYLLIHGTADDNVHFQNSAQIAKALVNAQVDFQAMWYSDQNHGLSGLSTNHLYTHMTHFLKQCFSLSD

[2] = molecular target: Dipeptidyl peptidase 2 (Homo sapiens, UniProt Q9UHL4); assay: Inhibitory activity against recombinant DPP2
[3] = tested on: Canis familiaris; assay: Gastro-Intestinal toxicity in dog at 10 mg/kg, po; assay type: organism-based, Canis lupus familiaris; design: dose 10 mg/kg, route oral; details: in vivo
[4] = Oral bioavailability in rat, po; assay type: ADME, organism-based; details: in vivo
[5] = species: Homo sapiens; assay: Inhibition of cytochrome P450
[6] = Oral bioavailability in rat; assay type: ADME, organism-based; details: in vivo
[7] = Half life cyclization at 37 C, pH 7.2; assay type: ADME
[8] = Oral bioavailability in dog; assay type: ADME, organism-based, Canis lupus familiaris; details: in vivo
[9] = Half life in dog; assay type: ADME, organism-based, Canis lupus familiaris; details: in vivo
[10] = Half life in rat; assay type: ADME, organism-based; details: in vivo

SMILES | Ki [1] | Ki [2] | also measured
CC(C)([C@H](N)C(=O)N1C[C@@H](F)C[C@H]1C#N)S(=O)(=O)CCCc1ccccc1 | > 23.4 µM | > 22.4 µM | 
CC(C)([C@H](N)C(=O)N1C[C@@H](F)C[C@H]1C#N)S(=O)(=O)Cc1ccc(-c2ccccc2)cc1 |  | > 22.4 µM | 
CC(C)([C@H](N)C(=O)N1C[C@@H](F)C[C@H]1C#N)S(=O)(=O)Cc1csc2ccc(Cl)cc12 |  | > 22.4 µM | 
CC(C)([C@H](N)C(=O)N1C[C@@H](F)C[C@H]1C#N)S(=O)(=O)Cc1ccc(C#N)cc1 |  | > 22.4 µM | Activity [3]: Toxic
CC(C)([C@H](N)C(=O)N1C[C@@H](F)C[C@H]1C#N)S(=O)(=O)Cc1ccccc1 | > 23.4 µM | > 22.4 µM | 
CC(C)(SCc1ccc(C(F)(F)F)cc1)[C@H](N)C(=O)N1C[C@@H](F)C[C@H]1C#N | > 23.4 µM |  | 
CC(C)([C@H](N)C(=O)N1C[C@@H](F)C[C@H]1C#N)S(=O)(=O)O |  | > 22.4 µM | 
COc1cccc(CS(=O)(=O)C(C)(C)[C@H](N)C(=O)N2C[C@@H](F)C[C@H]2C#N)c1 |  | > 22.4 µM | 
CC(C)([C@H](N)C(=O)N1C[C@@H](F)C[C@H]1C#N)S(=O)(=O)Cc1ccc(F)cc1 | > 23.4 µM | > 22.4 µM | 
Cc1ccc(CS(=O)(=O)C(C)(C)[C@H](N)C(=O)N2C[C@@H](F)C[C@H]2C#N)cc1 | > 23.4 µM | > 22.4 µM | 
COc1ccc(C[S+]([O-])C(C)(C)[C@H](N)C(=O)N2C[C@@H](F)C[C@H]2C#N)cc1 (stereo partly drawn) | > 23.4 µM | > 22.4 µM | 
CC(C)([C@H](N)C(=O)N1C[C@@H](F)C[C@H]1C#N)S(=O)(=O)Cc1ccc(OCc2ccccc2)cc1 |  | > 22.4 µM | 
CC(C)(SCc1ccncc1)[C@H](N)C(=O)N1C[C@@H](F)C[C@H]1C#N |  | > 22.4 µM | 
CC(C)([C@H](N)C(=O)N1C[C@@H](F)C[C@H]1C#N)S(=O)(=O)Cc1ccncc1 | > 23.4 µM | > 22.4 µM | 
CC(C)([C@H](N)C(=O)N1C[C@@H](F)C[C@H]1C#N)S(=O)(=O)Cc1ccc(S(C)(=O)=O)cc1 | > 23.4 µM |  | bioavailability [4]: < 5%
CC(=O)NCSC(C)(C)[C@H](N)C(=O)N1C[C@@H](F)C[C@H]1C#N |  | > 22.4 µM | 
CC(C)(SCCc1ccccc1)[C@H](N)C(=O)N1C[C@@H](F)C[C@H]1C#N | > 23.4 µM |  | 
COc1ccc(CSC(C)(C)[C@H](N)C(=O)N2C[C@@H](F)C[C@H]2C#N)cc1 | > 23.4 µM |  | 
COc1ccc(CS(=O)(=O)C(C)(C)[C@H](N)C(=O)N2CCC[C@H]2C#N)cc1 |  |  | IC50 [5]: > 15 µM; bioavailability [6]: 4%; half-life [7]: 360 h; bioavailability [8]: 100%; half-life [9]: 3 h; half-life [10]: 4.2 h
CC(C)(SCc1ccccn1)[C@H](N)C(=O)N1C[C@@H](F)C[C@H]1C#N |  | > 22.4 µM | 
CC(=O)Nc1ccc(CS(=O)(=O)C(C)(C)[C@H](N)C(=O)N2C[C@@H](F)C[C@H]2C#N)cc1 |  | > 22.4 µM | 
COc1ccccc1CS(=O)(=O)C(C)(C)[C@H](N)C(=O)N1C[C@@H](F)C[C@H]1C#N |  | > 22.4 µM | 
CC(C)([C@H](N)C(=O)N1C[C@@H](F)C[C@H]1C#N)S(=O)(=O)Cc1cccc(Oc2ccccc2)c1 |  | > 22.4 µM | 
COc1ccc(CS(=O)(=O)C(C)(C)[C@H](N)C(=O)N2C[C@@H](F)C[C@H]2C#N)cc1 | > 23.4 µM | > 22.4 µM | IC50 [5]: > 15 µM; half-life [9]: 3.9 h; half-life [10]: 2.3 h
CC(C)(SCc1cccnc1)[C@H](N)C(=O)N1C[C@@H](F)C[C@H]1C#N | > 23.4 µM | > 22.4 µM | 
